From patent US9868719B2, “Compounds with pesticidal activity” (BAYER CROPSCIENCE AKTIENGESELLSCHAFT, priority 2013, dated 2018)
Like-named read-outs stand apart in the source and are kept apart here.

Experiments:
Haemonchus contortus = assay: Haemonchus contortus-Test (HAEMCO), larval mortality; conditions: 120 h, read-out: activity (larval mortality)
Method: Haemonchus contortus-Test (HAEMCO)
(§1) Solvent: dimethyl sulfoxide
(§2) To produce a suitable preparation of active compound, 10 mg of active compound are dissolved in 0.5 ml solvent, and the concentrate is diluted with “Ringer's solution” to the desired concentration.
Approximately 40 larvae of the red stomach worm (Haemonchus contortus) are transferred into a test tube containing compound solution.
After 5 days percentage of larval mortality are recorded, 100% efficacy means all larvae are killed, 0% efficacy means no larvae are killed.

logP = conditions: for chromatographic logP: HCOOH (formic acid)
Cooperia curticei = assay: microbe, parasite or virus in culture; conditions: 120 h, read-out: activity (larval mortality)
Method: Cooperia curticei-Test (COOPCU)
as §1, §2
Approximately 40 nematode larvae (Cooperia curticei) are transferred into a test tube containing the compound solution.
After 5 days percentage of larval mortality is recorded, 100% efficacy means all larvae are killed; 0% efficacy means no larvae are killed.

Meloidogyne incognita = assay: Meloidogyne incognita-Test, gall formation on salad seedlings; type: in vivo; conditions: 336 h, read-out: nematicidal activity (on the basis of gall formation)
Method: Meloidogyne incognita-Test
Solvent: 125.0 parts by weight of acetone
To produce a suitable preparation of active compound, 1 part by weight of active compound is mixed with the stated amount of solvent, and the concentrate is diluted with water to the desired concentration.
Vessels are filled with sand, a solution of the active ingredient, a suspension containing eggs and larvae of the southern root-knot nematode (Meloidogyne incognita) and salad seeds. The salad seeds germinate and the seedlings grow. Galls develop in the roots.
After 14 days the nematicidal activity is determined on the basis of the percentage of gall formation. 100% means no galls were found and 0% means the number of galls found on the roots of the treated plants was equal to that in untreated control plants.

[1] = system: Nippostrongylus brasiliensis; assay: Nippostrongylus brasiliensis-Test (NIPOBR), in vitro efficacy, acetylcholine esterase readout; conditions: 10 μg/ml, read-out: activity (reduction of AChe compared to negative control)
Method: Nippostrongylus brasiliensis-Test (NIPOBR) (In Vitro Efficacy Test)
Adult Nippostrongylus brasiliensis were washed with saline buffer containing 100 U/ml penicillin, 0.1 mg/ml streptomycin and 2.5 μg/ml amphotericin B. Test compounds were dissolved in DMSO, and worms were incubated in medium in a final concentration of 10 μg/ml. An aliquot of the medium was used to determine the acetylcholine esterase activity in comparison to a negative control. The principle of measuring acetylcholine esterase as readout for anthelmintic activity was described in Rapson et al (1986) and Rapson et al (1987).

chromatographic logP (logP)	Compound	mortality at 20 ppm (Haemonchus contortus) [%]	mortality at 20 ppm (Cooperia curticei) [%]	further results
	O=C(NCCc1ncc(-n2cc(C(F)(F)F)cn2)cc1Cl)c1ccccc1C(F)(F)F [Example 2]	100	100	pest or weed control at 20 ppm (Meloidogyne incognita): 1%; inhibition at 10 µg/mL [1]: ≥ 60%; chromatographic logP (physchem): 3.65
	O=C(NCCc1ncc(-n2ccc(C(F)(F)F)n2)cc1Cl)c1ccccc1C(F)(F)F [Example 3]	100	100	pest or weed control at 20 ppm (Meloidogyne incognita): 1%; inhibition at 10 µg/mL [1]: ≥ 60%; chromatographic logP (physchem): 3.68
	O=C(NCCc1ncc(-n2cccn2)cc1Cl)c1ccccc1C(F)(F)F [Example 4, N-{2-[3-chloro-5-(1H-pyrazol-1-yl)pyridin-2-yl]ethyl}-2-(trifluoromethyl)benzamide]	100	100	pest or weed control at 20 ppm (Meloidogyne incognita): 1%; inhibition at 10 µg/mL [1]: ≥ 60%; chromatographic logP (physchem): 2.69
	O=C(NCC(F)(F)c1ncc(-c2ccoc2)cc1Cl)c1ccccc1C(F)(F)F [Example 8]		100	
	Cc1occc1-c1cnc(C(F)(F)CNC(=O)c2ccccc2C(F)(F)F)c(Cl)c1 [Example 9]	90	100	
	O=C(NCC(F)(F)c1ncc(-c2cncc(F)c2)cc1Cl)c1ccccc1C(F)(F)F [Example 10]	100	100	pest or weed control at 20 ppm (Meloidogyne incognita): 1%; inhibition at 10 µg/mL [1]: ≥ 60%; chromatographic logP (physchem): 2.84
1.86	Cc1ncccc1-c1cnc(C(F)(F)CNC(=O)c2ccccc2C(F)(F)F)c(Cl)c1 [Example 13]			pest or weed control at 20 ppm (Meloidogyne incognita; 20 ppm, after 14 days): 90%; mortality at 20 ppm (Cooperia curticei; 20 ppm, after 5 days): 90%
	O=C(NCC(F)(F)c1ncc(-c2cccnc2Cl)cc1Cl)c1ccccc1C(F)(F)F [Example 14]	100	100	pest or weed control at 20 ppm (Meloidogyne incognita): 1%; inhibition at 10 µg/mL [1]: ≥ 60%; chromatographic logP (physchem): 3
	O=C(NCC(F)(F)c1ncc(-c2cncc(Cl)c2)cc1Cl)c1ccccc1C(F)(F)F [Example 15]	100	100	pest or weed control at 20 ppm (Meloidogyne incognita): 90%; inhibition at 10 µg/mL [1]: ≥ 60%; chromatographic logP (physchem): 3.17
	O=C(NCC(F)(F)c1ncc(-c2ccc(F)nc2)cc1Cl)c1ccccc1C(F)(F)F [Example 16]	100	100	pest or weed control at 20 ppm (Meloidogyne incognita): 1%; inhibition at 10 µg/mL [1]: ≥ 60%; chromatographic logP (physchem): 3.02
	O=C(NCC(F)(F)c1ncc(-c2cccnc2)cc1Cl)c1ccccc1C(F)(F)F [Example 19]	100	100	inhibition at 10 µg/mL [1]: ≥ 60%; chromatographic logP (physchem): 2.27
2.88	O=C(NCC(F)(F)c1ncc(-c2cnccc2Cl)cc1Cl)c1ccccc1C(F)(F)F [Example 21]		80	
	O=C(NCC(F)(F)c1ncc(-c2cc(Cl)nc(Cl)c2)cc1Cl)c1ccccc1C(F)(F)F [Example 25]	100	100	pest or weed control at 20 ppm (Meloidogyne incognita): 1%; inhibition at 10 µg/mL [1]: ≥ 60%; chromatographic logP (physchem): 3.84
	O=C(NCC(F)(F)c1ncc(-n2cc(C(F)(F)F)cn2)cc1Cl)c1ccccc1C(F)(F)F [Example 28]	100	100	pest or weed control at 20 ppm (Meloidogyne incognita): 1%; inhibition at 10 µg/mL [1]: ≥ 60%
2.57	O=C(NCC(F)(F)c1ncc(-c2ccc(F)cn2)cc1Cl)c1cccnc1C(F)(F)F [Example 29]			pest or weed control at 20 ppm (Meloidogyne incognita; 20 ppm, after 14 days): 1%
2.75	O=C(NCC(F)(F)c1ncc(-c2ccc(F)cn2)cc1Cl)c1nccnc1C(F)(F)F [Example 30]			
3.94	CC(F)(CNC(=O)c1ccccc1C(F)(F)F)c1ncc(-c2ccc(F)nc2)cc1Cl (centres unmarked) [Example 31]			
2.66	CC(F)(CNC(=O)c1cccnc1C(F)(F)F)c1ncc(-c2ccc(F)nc2)cc1Cl (centres unmarked) [Example 32]			
3.26	CC(F)(CNC(=O)c1ccccc1C(F)(F)F)c1ncc(-c2ccc(Cl)nc2)cc1Cl (centres unmarked) [Example 33]			
	CC(F)(CNC(=O)c1ccccc1C(F)(F)F)c1ncc(-c2ccc(C(F)(F)F)nc2)cc1Cl (centres unmarked) [Example 35]			logP (logP): 3.55
3.17	CC(F)(CNC(=O)c1cccnc1C(F)(F)F)c1ncc(-c2ccc(C(F)(F)F)nc2)cc1Cl (centres unmarked) [Example 36]			
3.79	Cc1ccc(-c2cnc(C(C)(F)CNC(=O)c3ccccc3C(F)(F)F)c(Cl)c2)cn1 (centres unmarked) [Example 37]			
1.69	Cc1ccc(-c2cnc(C(C)(F)CNC(=O)c3cccnc3C(F)(F)F)c(Cl)c2)cn1 (centres unmarked) [Example 38]			
2.99	CC(F)(CNC(=O)c1ccccc1C(F)(F)F)c1ncc(-c2cncc(F)c2)cc1Cl (centres unmarked) [Example 39]			
2.49	CC(F)(CNC(=O)c1cccnc1C(F)(F)F)c1ncc(-c2cncc(F)c2)cc1Cl (centres unmarked) [Example 40]			
3.28	O=C(NCC(F)(F)c1ncc(-c2cc(F)c(F)cn2)cc1Cl)c1ccccc1C(F)(F)F [Example 41]			
1.97	CN(C)c1ccc(-c2cnc(C(F)(F)CNC(=O)c3ccccc3C(F)(F)F)c(Cl)c2)cn1 [Example 42]			

Compound	chromatographic logP (logP)	mortality at 20 ppm (Haemonchus contortus) [%]	mortality at 20 ppm (Cooperia curticei) [%]	further results
O=C(NCCc1ncc(-n2ccnc2)cc1Cl)c1ccccc1C(F)(F)F [Example 1]	1.21			mortality at 20 ppm (Haemonchus contortus; 20 ppm, after 5 days): 80%; mortality at 20 ppm (Cooperia curticei; 20 ppm, after 5 days): 100%
O=C(NCCc1ncc(-n2cncn2)cc1Cl)c1ccccc1C(F)(F)F [Example 5]	2.06	90		pest or weed control at 20 ppm (Meloidogyne incognita; 20 ppm, after 14 days): 1%
O=C(NCCc1ncc(-c2ccc(Cl)nc2)cc1Cl)c1ccccc1C(F)(F)F [Example 6]	3	100	100	pest or weed control at 20 ppm (Meloidogyne incognita; 20 ppm, after 14 days): 1%
O=C(NCCc1ncc(-c2ccc(C(F)(F)F)nc2)cc1Cl)c1ccccc1C(F)(F)F [Example 7, N-{2-[5-chloro-6′-(trifluoromethyl)-3,3′-bipyridin-6-yl]ethyl}-2-(trifluoromethyl) benzamide]	3.29	90	100	pest or weed control at 20 ppm (Meloidogyne incognita; 20 ppm, after 14 days): 90%
O=C(NCC(F)(F)c1ncc(-c2ccc(C(F)(F)F)nc2)cc1Cl)c1ccccc1C(F)(F)F [Example 11, N-{2-[5-chloro-6′-(trifluoromethyl)-3,3′-bipyridin-6-yl]-2,2-difluoroethyl}-2-(trifluoromethyl) benzamide]	3.42	90	100	
O=C(NCC(F)(F)c1ncc(-c2ccc(Cl)nc2)cc1Cl)c1ccccc1C(F)(F)F [Example 12]	3.21	90	100	pest or weed control at 20 ppm (Meloidogyne incognita; 20 ppm, after 14 days): 90%
CC(C)Oc1ccc(-c2cnc(C(F)(F)CNC(=O)c3ccccc3C(F)(F)F)c(Cl)c2)cn1 [Example 17]	4.15	90	100	
O=C(NCC(F)(F)c1ncc(-c2ccc(Cl)nc2Cl)cc1Cl)c1ccccc1C(F)(F)F [Example 18]	3.68	80	100	pest or weed control at 20 ppm (Meloidogyne incognita; 20 ppm, after 14 days): 1%
O=C(NCC(F)(F)c1ncc(-c2ccc(OCC(F)(F)F)nc2)cc1Cl)c1ccccc1C(F)(F)F [Example 20]	3.94	100	100	pest or weed control at 20 ppm (Meloidogyne incognita; 20 ppm, after 14 days): 90%
O=C(NCC(F)(F)c1ncc(-c2ccncc2)cc1Cl)c1ccccc1C(F)(F)F [Example 22]	2	90	100	
O=C(NCC(F)(F)c1ncc(-c2ccnc(F)c2)cc1Cl)c1ccccc1C(F)(F)F [Example 23]	2.96	100	100	pest or weed control at 20 ppm (Meloidogyne incognita; 20 ppm, after 14 days): 1%
O=C(NCC(F)(F)c1ncc(-c2ccnc(Cl)c2)cc1Cl)c1ccccc1C(F)(F)F [Example 24]	3.17	100	100	pest or weed control at 20 ppm (Meloidogyne incognita; 20 ppm, after 14 days): 1%
